In patent US11058718B2, “Method for treating non-alcoholic steatohepatitis (NASH) with the combination of polaprezinc and sodium selenite” (Medico Consl Co., Ltd., priority 2019, dated 2021):

Key:
[1] = tested on: NASH model mice (STAM mouse); test: NASH model (STAM) mice, oral administration once a day for 28 days; liver tissue images, liver weight, serum and hepatic markers, NAS; type: in vivo; design: TNF-alpha, Score showing the degree of inflammation / IFN-gamma, Score showing the degree of inflammation: scale not given here; settings: for serum ferritin level: oral 28 days (FIG. 7); for TNF-alpha, Score showing the degree of inflammation: oral 28 days (FIG. 11); for IFN-gamma, Score showing the degree of inflammation: oral 28 days (FIG. 12); for hepatic fibrosis area ratio: oral 28 days (FIG. 13); for weight ratio of liver to body / serum ALT level / hepatic TG (hepatic triglyceride) / MCP-1 (monocyte chemotactic protein-1) / NAS (NAFLD activity score) / hepatic ballooning score / lobular inflammation score / steatosis score / NAS (NAFLD activity score) improvement, in words: oral 28 days; for weight ratio of liver to body: after administration (FIG. 5); for serum ALT level: after administration (FIG. 6); for hepatic TG (hepatic triglyceride): after administration (FIG. 9); for MCP-1 (monocyte chemotactic protein-1): after administration (FIG. 10); for NAS (NAFLD activity score): full score of 8 (FIG. 17); for hepatic ballooning score: score of 0 to 2 (FIG. 14); for lobular inflammation score: score of 0 to 3 (FIG. 15); for steatosis score: score of 0 to 3 (FIG. 16); for liver weight: oral once a day, 28 days, polaprezinc 45.2 mg/kg, sodium selenite 150 μg/kg, after administration (FIG. 4); for NAS (NAFLD activity score) improvement, in words: comparison between groups
Description: An internationally prized and recognized STAM (registered trademark) mouse was used for the research model of non-alcoholic fatty liver disease (NAFLD) and/or non-alcoholic steatohepatitis (NASH). A STAM (registered trademark) mouse is an animal model of non-alcoholic steatohepatitis prepared by administrating inflammation inducer of the pancreas (patent literature 2) which Stelic Institute & Co. developed and is publically informed as patentee, and many research reports using this animal model has already been made domestic and overseas.
The NASH model mice were assigned to four groups (eight mice per group) by body weight stratification random sampling method so that the average body weight is equal. The four groups are the zinc preparation (polaprezinc)+selenium preparation (sodium selenite) group, zinc preparation (polaprezinc) alone group, selenium preparation (sodium selenite) alone group, and control group. The route of administration was oral administration, and the period of administration was 28 days.
The number of administration was once a day. The dosage was 10 ml/kg body weight and was administrated using an oral zonde.
The dosages of each group are shown below.
Blood was collected from the heart under ether anesthesia at the end of administration. The obtained serum was divisionally injected into a tube. It was euthanized by exsanguination after blood sampling and the photograph of the extracted liver was taken. For all necropsied animals, treatment was made to divide the liver into four respective lobes (right/left medial lobe, left lateral lobe, right lobe, caudate lobe), wherein especially the left lateral lobe was treated for three parts taking two each of its six equally divided parts, and the tissue image was analyzed.
The evaluation for non-alcoholic fatty liver disease (NAFLD) and/or non-alcoholic steatohepatitis (NASH) improvement was evaluated by the following items.
NAS (NAFLD activity score) is used to evaluate non-alcoholic fatty liver disease (NAFLD). NAS is advocated by Nonalcoholic⋅Steato⋅hepatitis⋅Clinical⋅Research⋅Network (nonpatent literature 2). […] The activity of NAS is evaluated by putting the three of steatosis, lobular inflammation, and Ballooning degeneration into scores. It is shown in full score of 8 in total, score of 0 to 3 for steatosis and lobular inflammation, and score of 0 to 2 for hepatic Ballooning degeneration. Steatosis, lobular inflammation, hepatic Ballooning degeneration, and NAS (NAFLD activity score) was compared and examined for the four groups, the group of the combination drug of zinc preparation (polaprezinc) and selenium preparation (sodium selenite), the control group, the zinc preparation (polaprezinc) alone group, and the selenium preparation (sodium selenite) alone group.

hepatic fibrosis = settings: from patent literature 1, nonpatent literature 3 and 5; cited from earlier work

With O=[Se](O)O [selenium preparation (sodium selenite), sodium selenite] the serum ferritin level [1] was 5,251 ng/ml, the “TNF-alpha, Score showing the degree of inflammation” value [1] was 13.23 and the “IFN-gamma, Score showing the degree of inflammation” value [1] was 8.02. The “hepatic fibrosis area ratio” value [1] was 1.18%, the “weight ratio of liver to body” value [1] was 7.43% and the “serum ALT level” value [1] was 54.6 IU/L. The “hepatic TG (hepatic triglyceride)” value [1] was 57.3 mg/dL, the “MCP-1 (monocyte chemotactic protein-1)” value [1] was 3.2 and the “NAS (NAFLD activity score)” value [1] was 3.54. For the same compound, the hepatic ballooning score [1] was 1.23, the lobular inflammation score [1] was 1.46 and the steatosis score [1] was 0.85. The liver weight [1] was 1,385.2 mg.
For NCCC(=O)[N-][C@@H](Cc1c[nH]cn1)C(=O)[O-].[Zn+2] [zinc preparation (polaprezinc), L-carnosine zinc salt], the “F4/80 (macrophage) antigen expression level in stained liver tissue” value ([1]; oral 28 days (FIG. 2-1, 2-2)) was “suppresses the expression level significantly compared with the control”, the serum ferritin level [1] was 5,740 ng/ml and the “TNF-alpha, Score showing the degree of inflammation” value [1] was 12.80. The “IFN-gamma, Score showing the degree of inflammation” value [1] was 7.95, the “hepatic fibrosis area ratio” value [1] was 1.16% and the “weight ratio of liver to body” value [1] was 7.49%. For the same compound, the “serum ALT level” value [1] was 58.8 IU/L, the “hepatic TG (hepatic triglyceride)” value [1] was 64.2 mg/dL and the “MCP-1 (monocyte chemotactic protein-1)” value [1] was 3.3. For the same compound, the “NAS (NAFLD activity score) improvement, in words” value [1] was “significantly declined NAS (NAFLD activity score) compared with the control group”, the “NAS (NAFLD activity score) improvement, in words” value ([1]; listed as Zinc preparation (polaprezinc)) was “showed improvement compared to the control group” and the “NAS (NAFLD activity score)” value [1] was 3.62. For the same compound, the hepatic ballooning score [1] was 1.38, the lobular inflammation score [1] was 1.38 and the steatosis score [1] was 0.85. The liver weight [1] was 1,389 mg and the “suppression of hepatic fibrosis (prior reports)” value (hepatic fibrosis) was “suppresses hepatic fibrosis”.
